Test results reported in patent US9133134B2, “Inhibitors of bruton's tyrosine kinase” (Pharmacyclics, Inc., priority 2012, dated 2015).
pIC50: −log10 of the molar value.

Molecular target: human BTK (Homo sapiens (Human), UniProt Q06187)
Assay: Btk enzymatic kinase assay (electrophoretic mobility shift assay)
Assay type: biochemical
Settings: recombinant full-length human BTK 1 nM, ATP 16 μM, peptide substrate 1 μM, one hour incubation
Procedure: Kinase activity is measured in vitro using electrophoretic mobility shift assay. The kinase reactions are assembled in a total volume of 25 μL in 384 well plates. […] The reaction is incubated for one hour and is quenched by the addition of 45 μL of termination buffer (100 mM HEPES, pH7.5, 0.01% Triton X-100, 30 mM EDTA). The terminated reactions are analyzed using 12 channel LabChip® 3000 microfluidic detection instrument (Caliper Life Sciences). […] Change in the relative fluorescence intensity of the substrate and product peaks is the parameter measured, reflecting enzyme activity. In the presence of an inhibitor, the ratio between product and substrate is altered: the signal of the product decreases, while the signal of the substrate increases.
Activity in each sample is determined as the product to sum ratio (PSR): P/(S+P), where P is the peak height of the product peptide and S is the peak height of the substrate peptide. For each compound, enzyme activity is measured at various concentrations (12 concentrations of compound spaced by 3× dilution intervals). […] Percent inhibition (Pinh) is determined using following equation: […]
The IC50 values of inhibitors are determined by 4 parameter sigmoidal dose-response model fitting of the inhibition curves (Pinh versus inhibitor concentration) using XLfit 4 software.

Chain of human BTK (Q06187 whole entry): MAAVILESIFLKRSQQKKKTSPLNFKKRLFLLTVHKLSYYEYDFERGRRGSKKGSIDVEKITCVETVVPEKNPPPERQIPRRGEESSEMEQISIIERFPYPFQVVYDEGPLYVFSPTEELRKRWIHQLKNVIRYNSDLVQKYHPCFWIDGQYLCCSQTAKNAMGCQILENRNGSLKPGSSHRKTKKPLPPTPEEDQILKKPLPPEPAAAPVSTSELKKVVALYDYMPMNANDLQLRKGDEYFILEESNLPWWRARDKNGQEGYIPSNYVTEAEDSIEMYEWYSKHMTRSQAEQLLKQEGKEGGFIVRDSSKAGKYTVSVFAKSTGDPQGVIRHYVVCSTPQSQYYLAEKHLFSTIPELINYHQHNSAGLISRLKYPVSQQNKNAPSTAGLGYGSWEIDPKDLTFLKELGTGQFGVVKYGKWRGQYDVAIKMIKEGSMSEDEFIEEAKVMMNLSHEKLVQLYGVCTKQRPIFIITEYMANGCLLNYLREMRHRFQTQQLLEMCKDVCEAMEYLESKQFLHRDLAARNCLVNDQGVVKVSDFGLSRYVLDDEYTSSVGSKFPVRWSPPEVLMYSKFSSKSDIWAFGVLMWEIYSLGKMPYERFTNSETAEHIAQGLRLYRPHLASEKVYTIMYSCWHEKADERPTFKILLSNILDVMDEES

pIC50: > 6.30
SMILES: COCCOc1ccc(Nc2ncc(F)c(Nc3cccc(NC(=O)C(O)CO)c3)n2)cc1 (stereo not shown) [Compound 4, N-(3-(5-fluoro-2-(4-(2-methoxyethoxy)phenylamino)pyrimidin-4-ylamino)phenyl)-2,3-dihydroxypropanamide]
